The record followed here is ChEMBL document CHEMBL3132769, “Fragment growing to retain or alter the selectivity of anchored kinase hinge-binding fragments” (Medchemcomm, 2014).

Assay [1] has as its target Ribosomal protein S6 kinase alpha-2 (Homo sapiens) (UniProt Q15349). Kind of assay: Inhibition of human full length RSK3 expressed in baculovirus assessed as substrate phosphorylation using fluorescence-labelled peptides as substrate at 2 uM after 90 mins by microfluidic peptide phosphorylation assay.
Assay [2] has as its target Glycogen synthase kinase-3 beta (Homo sapiens) (UniProt P49841). Kind of assay: Inhibition of human full length GSK-3 beta expressed in baculovirus assessed as substrate phosphorylation using fluorescence-labelled peptides as substrate at 0.2 uM after 90 mins by microfluidic peptide phosphorylation assay.
Assay [3] addresses MAP kinase-activated protein kinase 2 (Homo sapiens) (UniProt P49137). Kind of assay: Inhibition of human full length MAPKAPK2 expressed in baculovirus assessed as substrate phosphorylation using fluorescence-labelled peptides as substrate at 0.2 uM after 90 mins by microfluidic peptide phosphorylation assay.
Assay [4] deals with T1, Serine/threonine-protein kinase Nek2 (Homo sapiens) (UniProt P51955).
T1 sequence (whole entry): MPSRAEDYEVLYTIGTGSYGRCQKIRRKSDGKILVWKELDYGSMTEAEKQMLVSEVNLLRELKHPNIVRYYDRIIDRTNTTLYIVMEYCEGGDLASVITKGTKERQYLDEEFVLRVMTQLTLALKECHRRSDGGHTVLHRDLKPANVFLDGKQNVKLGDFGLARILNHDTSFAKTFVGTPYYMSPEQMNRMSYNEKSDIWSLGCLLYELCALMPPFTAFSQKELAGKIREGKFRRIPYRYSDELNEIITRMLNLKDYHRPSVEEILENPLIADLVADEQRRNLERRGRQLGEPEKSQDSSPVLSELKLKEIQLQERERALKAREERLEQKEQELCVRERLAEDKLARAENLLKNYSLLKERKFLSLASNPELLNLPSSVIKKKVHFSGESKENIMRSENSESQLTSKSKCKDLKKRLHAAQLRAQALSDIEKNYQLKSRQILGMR
Briefly: Inhibition of human full length NEK2 expressed in baculovirus assessed as substrate phosphorylation using fluorescence-labelled peptides as substrate at 0.2 uM after 90 mins by microfluidic peptide phosphorylation assay.

Assay [5] deals with T2, cGMP-dependent protein kinase 1 (Homo sapiens) (UniProt Q13976).
T2 sequence (whole entry): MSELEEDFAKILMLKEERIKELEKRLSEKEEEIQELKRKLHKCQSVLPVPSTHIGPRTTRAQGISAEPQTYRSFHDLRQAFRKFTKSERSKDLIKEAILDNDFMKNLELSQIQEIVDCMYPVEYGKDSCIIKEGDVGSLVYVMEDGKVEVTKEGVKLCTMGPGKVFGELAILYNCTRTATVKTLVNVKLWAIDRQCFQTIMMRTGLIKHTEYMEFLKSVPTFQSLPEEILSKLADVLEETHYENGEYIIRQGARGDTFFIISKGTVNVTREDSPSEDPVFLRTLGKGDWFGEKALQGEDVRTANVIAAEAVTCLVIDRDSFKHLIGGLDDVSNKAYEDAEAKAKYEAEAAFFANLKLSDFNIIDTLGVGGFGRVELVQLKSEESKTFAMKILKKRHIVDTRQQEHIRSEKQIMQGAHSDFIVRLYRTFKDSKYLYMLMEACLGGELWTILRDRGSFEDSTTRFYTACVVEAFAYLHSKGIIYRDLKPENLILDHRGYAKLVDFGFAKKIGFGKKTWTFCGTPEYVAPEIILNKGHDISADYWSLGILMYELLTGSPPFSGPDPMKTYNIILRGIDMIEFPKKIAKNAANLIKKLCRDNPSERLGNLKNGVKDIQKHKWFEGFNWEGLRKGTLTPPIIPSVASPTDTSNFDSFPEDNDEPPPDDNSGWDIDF
Kind of assay: Inhibition of human full length PKG-1beta expressed in baculovirus assessed as substrate phosphorylation using fluorescence-labelled peptides as substrate at 0.06 uM after 90 mins by microfluidic peptide phosphorylation assay.

In assay [6] the target is RAF proto-oncogene serine/threonine-protein kinase (Homo sapiens) (UniProt P04049). Kind of assay: Inhibition of human truncated c-Raf expressed in baculovirus assessed as substrate phosphorylation using fluorescence-labelled peptides as substrate at 0.06 uM after 90 mins by microfluidic peptide phosphorylation assay.
RAF proto-oncogene serine/threonine-protein kinase (Homo sapiens), sequence (P04049 whole entry, the tested form may be a part): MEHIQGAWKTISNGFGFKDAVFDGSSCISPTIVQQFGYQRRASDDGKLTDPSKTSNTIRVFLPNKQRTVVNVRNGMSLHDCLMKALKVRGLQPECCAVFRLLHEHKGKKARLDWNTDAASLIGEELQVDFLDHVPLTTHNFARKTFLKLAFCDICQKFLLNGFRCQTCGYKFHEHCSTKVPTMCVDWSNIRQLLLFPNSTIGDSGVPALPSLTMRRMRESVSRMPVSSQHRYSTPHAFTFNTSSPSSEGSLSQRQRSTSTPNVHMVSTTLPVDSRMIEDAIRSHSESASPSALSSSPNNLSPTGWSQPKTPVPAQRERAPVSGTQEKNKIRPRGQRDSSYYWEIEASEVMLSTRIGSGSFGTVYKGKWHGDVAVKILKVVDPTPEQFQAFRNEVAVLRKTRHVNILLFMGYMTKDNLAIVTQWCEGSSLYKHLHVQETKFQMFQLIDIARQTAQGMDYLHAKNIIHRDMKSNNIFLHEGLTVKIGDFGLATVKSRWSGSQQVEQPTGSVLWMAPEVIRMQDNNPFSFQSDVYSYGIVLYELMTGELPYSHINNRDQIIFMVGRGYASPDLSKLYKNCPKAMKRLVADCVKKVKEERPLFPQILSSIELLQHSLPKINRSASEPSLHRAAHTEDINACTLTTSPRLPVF
For another assay, the species on record is Homo sapiens. Kind of assay: Inhibition of human P70S6K catalytic domain expressed in baculovirus assessed as substrate phosphorylation using fluorescence-labelled peptides as substrate at 9 uM after 90 mins by microfluidic peptide phosphorylation assay.
Assay [7] has as its target Tyrosine-protein kinase Lck (Homo sapiens) (UniProt P06239). Briefly: Inhibition of human full length LCK expressed in baculovirus assessed as substrate phosphorylation using fluorescence-labelled peptides as substrate at 9 uM after 90 mins by microfluidic peptide phosphorylation assay.
The target of assay [8] is Aurora kinase B (Homo sapiens) (UniProt Q96GD4). Briefly: Inhibition of human full length AurB expressed in baculovirus assessed as substrate phosphorylation using fluorescence-labelled peptides as substrate at 9 uM after 90 mins by microfluidic peptide phosphorylation assay.
Aurora kinase B (Homo sapiens), sequence (Q96GD4 whole entry, the tested form may be a part): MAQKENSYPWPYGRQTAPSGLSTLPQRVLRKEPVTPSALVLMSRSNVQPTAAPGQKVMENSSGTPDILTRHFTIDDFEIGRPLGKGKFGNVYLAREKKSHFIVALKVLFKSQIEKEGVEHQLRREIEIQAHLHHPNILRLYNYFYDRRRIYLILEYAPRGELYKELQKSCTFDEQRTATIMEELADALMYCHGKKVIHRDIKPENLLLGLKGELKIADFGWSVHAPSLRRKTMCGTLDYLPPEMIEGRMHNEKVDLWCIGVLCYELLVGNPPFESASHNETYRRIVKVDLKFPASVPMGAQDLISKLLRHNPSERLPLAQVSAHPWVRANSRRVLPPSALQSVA
For assay [9], the target named is Tyrosine-protein kinase ABL2 (Homo sapiens) (UniProt P42684). Briefly: Inhibition of human truncated Arg expressed in baculovirus assessed as substrate phosphorylation using fluorescence-labelled peptides as substrate at 9 uM after 90 mins by microfluidic peptide phosphorylation assay.
Tyrosine-protein kinase ABL2 (Homo sapiens), sequence (P42684 whole entry, the tested form may be a part): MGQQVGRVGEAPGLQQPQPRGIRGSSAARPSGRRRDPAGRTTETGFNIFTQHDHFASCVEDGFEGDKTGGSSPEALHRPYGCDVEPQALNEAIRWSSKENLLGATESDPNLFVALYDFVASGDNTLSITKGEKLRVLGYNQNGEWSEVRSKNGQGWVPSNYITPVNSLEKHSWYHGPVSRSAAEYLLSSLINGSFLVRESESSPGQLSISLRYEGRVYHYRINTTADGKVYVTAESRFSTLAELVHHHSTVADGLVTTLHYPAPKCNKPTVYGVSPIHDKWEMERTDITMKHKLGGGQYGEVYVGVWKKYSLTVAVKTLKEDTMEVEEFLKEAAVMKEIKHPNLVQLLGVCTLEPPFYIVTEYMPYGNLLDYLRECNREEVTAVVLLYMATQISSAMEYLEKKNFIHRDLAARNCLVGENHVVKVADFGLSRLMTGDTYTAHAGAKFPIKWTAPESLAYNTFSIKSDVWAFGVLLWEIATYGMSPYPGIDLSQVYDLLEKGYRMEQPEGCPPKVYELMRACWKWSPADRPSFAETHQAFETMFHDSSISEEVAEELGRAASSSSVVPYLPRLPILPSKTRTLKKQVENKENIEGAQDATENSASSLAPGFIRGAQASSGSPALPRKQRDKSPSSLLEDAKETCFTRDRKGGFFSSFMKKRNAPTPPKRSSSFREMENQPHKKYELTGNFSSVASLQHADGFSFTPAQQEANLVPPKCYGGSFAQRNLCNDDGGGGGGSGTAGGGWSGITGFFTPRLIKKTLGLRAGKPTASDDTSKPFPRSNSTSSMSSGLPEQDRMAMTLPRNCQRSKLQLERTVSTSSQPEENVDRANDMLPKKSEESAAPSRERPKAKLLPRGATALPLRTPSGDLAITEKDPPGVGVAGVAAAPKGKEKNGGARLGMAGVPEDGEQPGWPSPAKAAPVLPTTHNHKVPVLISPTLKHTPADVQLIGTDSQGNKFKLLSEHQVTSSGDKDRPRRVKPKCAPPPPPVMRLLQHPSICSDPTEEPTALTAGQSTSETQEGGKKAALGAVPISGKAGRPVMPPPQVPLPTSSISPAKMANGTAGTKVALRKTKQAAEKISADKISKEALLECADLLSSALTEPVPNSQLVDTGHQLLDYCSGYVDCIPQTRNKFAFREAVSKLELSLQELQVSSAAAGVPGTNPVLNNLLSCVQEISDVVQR
Assay [10] addresses Fibroblast growth factor receptor 4 (Homo sapiens) (UniProt P22455). Kind of assay: Inhibition of human FGFR4 catalytic domain expressed in baculovirus assessed as substrate phosphorylation using fluorescence-labelled peptides as substrate at 95 uM after 90 mins by microfluidic peptide phosphorylation assay.
Assay [11] addresses Tyrosine-protein kinase ABL2 (Homo sapiens) (UniProt P42684). Briefly: Inhibition of human truncated Arg expressed in baculovirus assessed as substrate phosphorylation using fluorescence-labelled peptides as substrate at 420 uM after 90 mins by microfluidic peptide phosphorylation assay.
The target of assay [12] is Receptor-type tyrosine-protein kinase FLT3 (Homo sapiens) (UniProt P36888). Kind of assay: Inhibition of human FLT3 catalytic domain expressed in baculovirus assessed as substrate phosphorylation using fluorescence-labelled peptides as substrate at 420 uM after 90 mins by microfluidic peptide phosphorylation assay.
Receptor-type tyrosine-protein kinase FLT3 (Homo sapiens), sequence (P36888 whole entry, the tested form may be a part): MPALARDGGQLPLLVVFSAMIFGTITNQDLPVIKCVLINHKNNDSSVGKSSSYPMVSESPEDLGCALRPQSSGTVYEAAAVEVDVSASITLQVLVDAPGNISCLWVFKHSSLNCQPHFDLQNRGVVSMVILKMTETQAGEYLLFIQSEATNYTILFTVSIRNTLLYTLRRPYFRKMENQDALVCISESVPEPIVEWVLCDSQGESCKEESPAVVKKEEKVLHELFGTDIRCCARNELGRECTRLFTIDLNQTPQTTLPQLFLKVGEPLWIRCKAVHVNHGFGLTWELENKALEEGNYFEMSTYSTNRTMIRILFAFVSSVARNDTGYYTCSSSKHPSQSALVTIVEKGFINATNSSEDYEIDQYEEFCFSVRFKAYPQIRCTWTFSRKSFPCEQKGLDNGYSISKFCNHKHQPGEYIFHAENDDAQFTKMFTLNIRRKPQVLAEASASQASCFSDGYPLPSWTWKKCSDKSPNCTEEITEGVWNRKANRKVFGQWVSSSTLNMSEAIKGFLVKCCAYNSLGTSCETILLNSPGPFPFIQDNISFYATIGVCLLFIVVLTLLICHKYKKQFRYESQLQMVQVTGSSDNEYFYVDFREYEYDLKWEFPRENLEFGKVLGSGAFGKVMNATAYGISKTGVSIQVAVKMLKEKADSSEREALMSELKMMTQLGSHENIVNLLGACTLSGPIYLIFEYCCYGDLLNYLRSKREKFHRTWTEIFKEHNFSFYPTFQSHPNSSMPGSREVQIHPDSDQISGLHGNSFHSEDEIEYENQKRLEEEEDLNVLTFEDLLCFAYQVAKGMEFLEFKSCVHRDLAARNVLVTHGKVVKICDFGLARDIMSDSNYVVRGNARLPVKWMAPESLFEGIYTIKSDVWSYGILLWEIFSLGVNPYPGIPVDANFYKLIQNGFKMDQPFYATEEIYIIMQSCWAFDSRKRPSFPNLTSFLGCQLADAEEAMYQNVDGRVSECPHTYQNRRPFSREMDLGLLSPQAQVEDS
The target of assay [13] is Tyrosine-protein kinase Lck (Homo sapiens) (UniProt P06239). Kind of assay: Inhibition of human full length LCK expressed in baculovirus assessed as substrate phosphorylation using fluorescence-labelled peptides as substrate at 1000 uM after 90 mins by microfluidic peptide phosphorylation assay.
Tyrosine-protein kinase Lck (Homo sapiens), sequence (P06239 2-509 limits assumed): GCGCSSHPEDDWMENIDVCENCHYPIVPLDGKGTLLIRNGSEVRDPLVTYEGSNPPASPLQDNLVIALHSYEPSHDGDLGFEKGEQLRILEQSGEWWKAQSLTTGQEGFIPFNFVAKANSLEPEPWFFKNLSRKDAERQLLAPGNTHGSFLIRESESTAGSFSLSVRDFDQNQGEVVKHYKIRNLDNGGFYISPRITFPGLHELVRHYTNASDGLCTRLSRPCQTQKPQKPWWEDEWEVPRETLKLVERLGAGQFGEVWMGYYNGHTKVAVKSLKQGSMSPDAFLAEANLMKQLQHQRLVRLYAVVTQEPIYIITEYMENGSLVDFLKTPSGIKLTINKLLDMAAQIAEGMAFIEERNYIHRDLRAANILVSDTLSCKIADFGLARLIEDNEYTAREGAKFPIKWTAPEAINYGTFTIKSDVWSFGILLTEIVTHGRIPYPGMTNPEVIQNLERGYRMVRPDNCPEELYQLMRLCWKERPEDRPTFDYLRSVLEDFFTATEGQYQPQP
Assay [14] deals with Receptor-type tyrosine-protein kinase FLT3 (Homo sapiens) (UniProt P36888). Kind of assay: Inhibition of human FLT3 catalytic domain expressed in baculovirus assessed as substrate phosphorylation using fluorescence-labelled peptides as substrate at 1000 uM after 90 mins by microfluidic peptide phosphorylation assay.

Ribosomal protein S6 kinase alpha-2 (Homo sapiens), sequence (Q15349 whole entry): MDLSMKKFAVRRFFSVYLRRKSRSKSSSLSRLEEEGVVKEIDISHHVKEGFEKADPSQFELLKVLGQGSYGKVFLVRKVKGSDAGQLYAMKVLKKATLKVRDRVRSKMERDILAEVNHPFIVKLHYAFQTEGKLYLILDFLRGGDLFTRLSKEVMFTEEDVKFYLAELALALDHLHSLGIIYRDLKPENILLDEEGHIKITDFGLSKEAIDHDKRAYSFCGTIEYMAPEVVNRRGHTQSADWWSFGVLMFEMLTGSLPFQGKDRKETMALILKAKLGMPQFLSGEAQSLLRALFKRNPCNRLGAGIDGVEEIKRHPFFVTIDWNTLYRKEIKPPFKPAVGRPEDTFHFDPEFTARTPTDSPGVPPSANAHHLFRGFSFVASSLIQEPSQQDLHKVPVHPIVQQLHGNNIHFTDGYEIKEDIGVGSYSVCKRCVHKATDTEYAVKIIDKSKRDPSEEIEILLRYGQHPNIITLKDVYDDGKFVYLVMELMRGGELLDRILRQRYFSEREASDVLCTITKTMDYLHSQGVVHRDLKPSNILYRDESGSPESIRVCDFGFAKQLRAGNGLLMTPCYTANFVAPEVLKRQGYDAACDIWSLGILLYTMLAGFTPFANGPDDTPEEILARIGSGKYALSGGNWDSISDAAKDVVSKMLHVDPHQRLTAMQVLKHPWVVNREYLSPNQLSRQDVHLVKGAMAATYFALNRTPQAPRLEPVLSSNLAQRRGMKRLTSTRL
MAP kinase-activated protein kinase 2 (Homo sapiens), sequence (P49137 whole entry, looked up): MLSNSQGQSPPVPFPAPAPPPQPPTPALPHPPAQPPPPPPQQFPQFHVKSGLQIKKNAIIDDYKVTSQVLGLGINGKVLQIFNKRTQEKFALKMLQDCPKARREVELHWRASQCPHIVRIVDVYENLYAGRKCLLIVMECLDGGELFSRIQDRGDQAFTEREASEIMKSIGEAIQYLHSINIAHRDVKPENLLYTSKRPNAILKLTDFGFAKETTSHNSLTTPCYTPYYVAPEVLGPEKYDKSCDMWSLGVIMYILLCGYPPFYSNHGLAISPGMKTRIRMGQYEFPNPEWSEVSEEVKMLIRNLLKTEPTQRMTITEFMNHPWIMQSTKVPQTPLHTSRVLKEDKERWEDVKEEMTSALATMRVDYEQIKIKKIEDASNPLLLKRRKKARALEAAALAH

As for `NC1CCN(c2ncnc3[nH]ccc23)CC1`, the inhibition (usually the drop in the measured response relative to a control, in per cent) in assay [1] worked out at 0%.

In the case of `Clc1ccc(C2(c3ccc(-c4ncnc5[nH]cnc45)cc3)CCNCC2)cc1`, the inhibition was 3.5% in [2], 10.5% in [3] and 4.5% in [4].

For `NC1(Cc2ccc(Cl)cc2)CCN(c2ncnc3[nH]ccc23)CC1`, the inhibition in assay [5] amounted to 0%; in assay [6], 3.5%.

As for `NCC1CN(c2ncnc3[nH]c4cnccc4c23)CCO1` (stereo not given), the inhibition in the assay listed under Homo sapiens is 14.5%; in assay [7], 39%; in [8] it was 31%; in assay [9] it was 6.5%.

With `NCCc1ccc(-c2ncnc3[nH]cnc23)cc1`, the inhibition in [10] amounted to 10%.

As to `c1nc(N2CCOCC2)c2nc[nH]c2n1`, the inhibition was 54.5% in assay [11] and 85.5% in assay [12].

As for `c1cnc2[nH]ccc2c1`, the inhibition in assay [13] amounted to 29%; in [14], 75.5%.
